The species entered for assay [1] is Rattus norvegicus. Put plainly: Effective concentration required for relaxation of rat aortic rings. It counts as functional. The conditions noted are these: Aorta.
The species named for assay [2] is Rattus norvegicus. Put plainly: Percentage Inhibition of relaxation of phenylephrine-induced tone in rat aortic smooth muscle at ~5000 nM. Type of assay: functional, Aorta.
Assay [3] is filed under the species Rattus norvegicus. Kind of assay: Percentage Inhibition of relaxation of phenylephrine-induced tone in rat aortic smooth muscle at ~100 nM. Type of assay: functional, Aorta.
The species entered for assay [4] is Rattus norvegicus. Kind of assay: Percentage Inhibition of relaxation of phenylephrine-induced tone in rat aortic smooth muscle at ~1000 nM. Type of assay: functional, Aorta.
For assay [5], the species on record is Rattus norvegicus. Put plainly: Percentage Inhibition of relaxation of phenylephrine-induced tone in rat aortic smooth muscle at ~600 nM. It counts as functional, Aorta.
For assay [6], the species on record is Rattus norvegicus. Kind of assay: Percentage Inhibition of relaxation of phenylephrine-induced tone in rat aortic smooth muscle at ~10 nM. It counts as functional, Aorta.
The species entered for assay [7] is Rattus norvegicus. Kind of assay: Percentage Inhibition of relaxation of phenylephrine-induced tone in rat aortic smooth muscle at ~500 nM. It counts as functional, Aorta.
Assay [8] is filed under the species Rattus norvegicus. Put plainly: Percentage Inhibition of relaxation of phenylephrine-induced tone in rat aortic smooth muscle at ~10000 nM. It counts as functional, Aorta.

Structures are written as SMILES. pEC50: −log10 of the molar value.

The term pEC50 denotes the negative decadic logarithm of the EC50, by convention in mol/L. Read a low pEC50 as a high EC50. For orientation: Inhibition means the drop in the measured response relative to a control, in per cent. The low end stands for little suppression, the high end for strong suppression.

`N[C@@H](CSN=O)C(=O)O` showed a pEC50 in the assay listed under Rattus norvegicus [1] of 8.70.
Take `N[C@H](CCC(=O)N[C@H](CSN=O)C(=O)NCC(=O)O)C(=O)O`: the Inhibition in the assay listed under Rattus norvegicus [2] came to 100%; in the assay listed under Rattus norvegicus [3], 25%; in the assay filed under Rattus norvegicus [4] it was 80%; in the assay filed under Rattus norvegicus [5], 50%. For the same compound, the pEC50 in the assay filed under Rattus norvegicus [1] was 6.54.
In turn, `N[C@H](CSN=O)C(=O)O` showed a pEC50 in the assay filed under Rattus norvegicus [1] of 8.68.
On the same count and under the same terms, with `CC(=O)N[C@H](C(=O)O)C(C)(C)SN=O` the figure was 6.32.
Regarding `CC(=O)N[C@@H](C(=O)O)C(C)(C)SN=O`, the negative logarithm of the EC50 (pEC50) in the assay filed under Rattus norvegicus [1] was 6.31. This pEC50 and that of the compound before are within 0.2 log units of each other.
Consider `N[C@@H](CCC(=O)N[C@@H](CSN=O)C(=O)NCC(=O)O)C(=O)O` [S-NITROSOGLUTATHIONE], for which the Inhibition in the assay filed under Rattus norvegicus [6] is on record as 20%; in the assay listed under Rattus norvegicus [7], 80%; in the assay listed under Rattus norvegicus [3], 50%; in the assay filed under Rattus norvegicus [4] it was 90%; in the assay listed under Rattus norvegicus [8], 100%. In the assay filed under Rattus norvegicus [1], this compound had a pEC50 of 6.97.

Source of the values: ChEMBL document CHEMBL1133439, “Synthesis and biological evaluation of enantiopure thionitrites: the solid-phase synthesis and nitrosation of D-glutathione as a molecular probe” (Bioorg Med Chem Lett, 2000).
